This note sets out measurements from the METLIN SMRT retention time set (Domingo-Almenara et al. 2019).

Molecules are shown by their SMILES.

This series in a line: gradient 5% acetonitrile 3 min, to 50% in 2 min, to 85% in 15 min, held 3 min, 100 µL/min. To be noted: column: Zorbax Extend-C18 2.1 x 50 mm; eluents: water / acetonitrile, 0.1% formic acid. In a few lines:
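Retention times come from adduct peaks that were picked computationally and then checked by hand. The standards, pure and pooled in mixtures of ~100 molecules, were run on a Zorbax Extend-C18 column (2.1 × 50 mm, 1.8 μm) at 100 μL/min with water and acetonitrile, each with 0.1% formic acid. Detection was by quadrupole time-of-flight mass spectrometry in positive and negative ionization mode, with a dead volume of 40 μL and a dwell volume of 900 μL.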
As for `COc1cc(C(=O)N2CCC(CC(=O)NC3CC3)CC2)cc(OC)c1OC`, the RP-LC retention time stood at 647 s.

On to `CCc1noc(NC(C)=O)c1-c1ccc(OC)c(S(=O)(=O)Nc2c(C)cccc2C)c1`, for which the RP-LC retention time worked out at 790 s. As to `CC(=O)N1CCc2cc(N3CC(C(=O)Nc4ccccc4)CC3=O)ccc21` (stereo not given), the RP-LC retention time was determined as 677 s. Next, `Cn1cc(CC(=O)N2CCN(c3ncccn3)CC2)c2ccccc21`: 720 s; `COC(=O)c1ccccc1S(=O)(=O)Nc1ccc2c(c1)CCC(=O)N2C`: 748 s; `Cc1cnc(CC2CCN(S(=O)(=O)c3ccc(C#N)cc3)C2)n1C1CC1` (stereo not given): 654 s. Next, `COC(=O)c1cccc(NC(=O)c2sc(-c3cn(C)c4ncccc34)nc2C)c1`: 927 s; `Cc1ccc(-c2cc3c(=O)n(Cc4noc(-c5ccccc5)n4)ccn3n2)c(C)c1`: 1160 s. Compound `C=C[C@]12CN(C)C3C4COC(CC41)[C@]1(C(=O)Nc4ccccc41)[C@@H]32` (stereo not given in full) returned an RP-LC retention time of 551 s. In the case of `O=C(NCCCN1CCOCC1)C1CCc2sc(C(=O)N3CCOCC3)cc2C1` (stereo not given), the RP-LC retention time is 568 s. To `CCOC(=O)c1ccc(Nc2cc(C(=O)N3CCCCC3)nc3cc(OC)c(OC)cc23)cc1` belongs 737 s. As for `Cc1cc2[nH]c(C(=O)Nc3ccc(C)c(F)c3)c(CN3CCOCC3)c2s1`, the RP-LC retention time was determined as 738 s.

`Cc1ccc(/C=C/c2nc(-c3ccc4c(c3)oc(=O)n4C)no2)cc1`: the RP-LC retention time was 1110 s.

As to `Cc1cc(N2CCN(C(=O)Nc3ccccc3C)CC2)nc(N2CCCC2)n1`, the RP-LC retention time is 651 s. Compound `Cc1nc2cc(N3CCC(C(=O)Nc4ccc(N5CCOCC5)cc4)CC3)cnc2nc1C` returned an RP-LC retention time of 649 s. To `Cc1cc(-c2cc(S(=O)(=O)NCCc3ccc(Cl)cc3)c(C)s2)n[nH]1` belongs 915 s. Take `CCNC(=O)C1CCN(S(=O)(=O)c2cc(C(=O)N3CCCCCC3)cs2)CC1`: the RP-LC retention time came to 717 s.

With `O=C(Cn1nc2c(N3CCc4ccccc4C3)nccn2c1=O)NC1CCCCC1`, the RP-LC retention time came to 865 s. `Cc1ccccc1Cc1noc(-c2nc(-c3ccccc3F)no2)n1` returned an RP-LC retention time of 1180 s.

For the compound `NC(=O)OCCCc1ccccc1`, the RP-LC retention time stood at 817 s.

In the case of `Cc1cccc(-c2noc(-c3nn(CC(=O)NC4CCCC4)c4ccccc34)n2)c1`, the RP-LC retention time came to 1180 s.

For `COC(=O)c1ccccc1NC(=O)N1CCCn2nc(-c3cccn3C)cc21`, the RP-LC retention time worked out at 958 s. Consider `COc1ccc(-n2c(=O)c(C(=O)Nc3ccc(OC)c(F)c3)c(O)c3cccnc32)cc1`, for which the RP-LC retention time was found to be 1200 s.

With `CCn1c(=O)c(=O)n(CC(=O)NCc2ccc(C)o2)c2cccnc21`, the RP-LC retention time stood at 688 s. To `CC(C)C(=O)Nc1cccnc1` belongs 583 s; to `O=C(NC1CC1)C1CCCN(C(=O)c2ccoc2)C1` (stereo not given), 584 s. Next, `O=C(Nc1ccc2c(c1)OCCO2)N1CC[C@@H]2COC(=O)N(Cc3ccccc3)[C@@H]2C1`: 724 s. Next, `CCc1cc(N2CCN(C(=O)COc3ccc(F)cc3)CC2)nc2nncn12`: 566 s. On to `c1ccc(Cn2cnnc2C2CCCN(Cc3cccs3)C2)cc1` (stereo not given), for which the RP-LC retention time was found to be 592 s. `O=C(CCn1nnc2ccccc2c1=O)NCC1CCS(=O)(=O)C1` (stereo not given): the RP-LC retention time was determined as 585 s.

`CN1C(=O)C(C)(C(=O)Nc2cccc(Cl)c2)Oc2cccnc21` (stereo not given) gave an RP-LC retention time of 889 s.

Take `O=C1NC2(CCN(C(=O)Cc3cccc(F)c3)CC2)Nc2c(Cl)cccc21`: the RP-LC retention time came out at 785 s.

With `COCCNC(=O)N1CCCC(COC)C1` (stereo not given), the RP-LC retention time came to 578 s.

`CCOc1ccc(NC(=O)NCCc2cn(CC)c3ncccc23)cc1` registered an RP-LC retention time of 704 s. Next, `O=C(c1nc(-c2ccnc(N3CCCC3)c2)no1)N1CCC2(CC1)OCCO2`: 617 s.

For `Cc1cccc(CN2CCCn3nc(C(=O)NCCc4ccco4)cc3C2=O)c1`, the RP-LC retention time is 870 s. The compound `CC(NC(=O)Nc1cccc(Br)c1)C(=O)N1CCc2ccccc21` (stereo not given) registered an RP-LC retention time of 950 s. Regarding `O=C(C1CCN(c2nc3ccc(-c4cccnc4)nc3s2)CC1)N1CCCC1`, the RP-LC retention time is 615 s. `COCC1CN(Cc2ccc(OC(F)(F)F)cc2)CC12CCNCC2` (stereo not given) showed an RP-LC retention time of 579 s. As for `Cc1noc(CNC(=O)C2CCN(C(=O)C(C)(C)Oc3ccc(Cl)cc3)CC2)n1`, the RP-LC retention time turned out to be 772 s. To `CCCn1c(=O)c2c(C(=O)N3CCN(c4ccc(Cl)cc4)CC3)cc(=O)n(CCC)c2n(C)c1=O` belongs 1210 s. Next, `O=C(NCc1cccnc1)c1ccc2c(c1)NC(=O)C1CCCCN21` (stereo not given): 585 s; `Cc1cnc(C2CCC2)n1CC1CCN(S(=O)(=O)c2ccccc2)CC1`: 686 s; `CCOc1ccccc1NC(=O)c1c(O)c2cccnc2n(-c2ccccc2)c1=O`: 1330 s.

Compound `O=C(CCn1ccc2cc(S(=O)(=O)N3CCCCC3)ccc21)N1CCN(c2ccccn2)CC1` had an RP-LC retention time of 680 s. To `CN1C(=O)c2cc(C(=O)NCCc3ccccc3Cl)nn2CC1(C)C(=O)NCc1ccccc1` (stereo not given) belongs 816 s; to `N#Cc1ccc(N2C=C(C(=O)N3CCOCC3)S(=O)(=O)c3ccc(F)cc32)cc1`, 726 s. For `Cc1ccc(Cn2cc(-c3ccncc3)cc2C(=O)NCC2CC2)cc1`, the RP-LC retention time was 705 s.

In turn, `Cc1nc2ccccc2c(=O)n1-c1ccc(NC(=O)c2cnccn2)cc1` had an RP-LC retention time of 682 s. Consider `Cc1noc(-c2ccc(-n3ncc(C(=O)NC4CCCCC4)c3C)nc2)n1`, for which the RP-LC retention time is 737 s. `Cc1ccc(C(=O)N2CCN(S(=O)(=O)c3cc4c5c(c3)CCC(=O)N5CCC4)CC2)cc1C` registered an RP-LC retention time of 850 s. Compound `COc1ccc(Cl)cc1C(=O)N1CCC(C(=O)Nc2nccs2)CC1` gave an RP-LC retention time of 697 s. For `CCn1c(C(=O)N2CCCC(C(=O)NC(C)C34CC5CC(CC(C5)C3)C4)C2)cc2sccc21` (stereo not given), the RP-LC retention time is 1210 s. Next, `COc1ccc(CCC(=O)N2CCN(c3cc(C)c4ccccc4n3)CC2)cc1OC`: 645 s. To `CN(C)C(=O)c1ccc2c(c1)nc(CN(C)C(=O)Nc1ccc(Br)cc1F)n2C` belongs 637 s; to `Cc1ccnc(N2CCC(C(=O)NCc3ccco3)CC2)n1`, 624 s.

`O=C1CC(c2ccccc2)N(C2CCC2)CCCCCN1` (stereo not given) gave an RP-LC retention time of 595 s. Next, `Cc1cc(OC(C)C(=O)Nc2ccnn2Cc2ccco2)ccc1Cl` (stereo not given): 921 s.

With `Cc1ccccc1CNC(=O)c1ccc2c(c1)CC(=O)N2C`, the RP-LC retention time is 714 s. Next, `Cc1ccc(-c2nnc(-c3cccc(S(=O)(=O)NCc4ccco4)c3)o2)cc1`: 968 s; `CN(C)CCCNc1cc(N2CCOCC2)c2noc3c2c1C(=O)c1ccccc1-3`: 770 s; `CC(C)c1cc(C(=O)NC2CC2)n[nH]1`: 625 s. Next, `O=C(C1CCN(S(=O)(=O)c2cc(-c3noc(C4CC4)n3)cs2)CC1)N1CCCCC1`: 931 s; `Cc1cc(C)c2nc(-c3ccc4ccccc4c3)cc(C(=O)O)c2c1`: 1310 s; `Cc1ccc(-c2nc(-c3ccc(S(=O)(=O)N4CCC(C(=O)N5CCCC5)CC4)cc3)no2)cc1C`: 1180 s.

Regarding `O=C(C1CCCCC1)N1CCCC1c1nc2ccccc2s1` (stereo not given), the RP-LC retention time was found to be 966 s.

For the compound `CCCNC(=O)CCc1nc2ccccc2n(CC(=O)Nc2cccc(OC)c2)c1=O`, the RP-LC retention time stood at 757 s. To `COc1ccc(C(=O)Nc2nc(-c3ccc4c(c3)N(C)C(=O)CO4)c(C)s2)cc1` belongs 967 s; to `CC1=C(c2ccc(C)c(C)c2)S(=O)(=O)N=C1N1CCCN(C(=O)c2ccncc2)CC1`, 692 s; to `CCN1CCN(C(=O)Cc2csc(-n3nc(C)c(Cl)c3C)n2)CC1`, 691 s. `CCOC(=O)c1cnc2ccc(OCC)cc2c1N1CCN(c2ccccc2)CC1` came in with an RP-LC retention time of 930 s. To `CCOC(=O)c1c(S(=O)(=O)N2CCC(C(=O)Nc3cc(C)ccn3)CC2)c(C)n(C)c1C` belongs 644 s; to `Cc1ccc(NC(=O)N2CCC(n3cnc4c(C)cccc4c3=O)CC2)c(C)c1`, 835 s. `CCc1nc2cc(-c3noc(CCc4c[nH]c5ccccc45)n3)ccc2o1` yielded an RP-LC retention time of 1050 s. To `Cc1noc(C)c1CCC(=O)N1CCCCC1c1nncn1CC1CC1` (stereo not given) belongs 655 s; to `CC1CCCN(c2ccn3c(=O)n(CC(=O)NCc4ccc(F)cc4)nc3n2)C1` (stereo not given), 804 s. Next, `Cn1nc(-c2nc(C3CC3)no2)c2c1CCN(C(=O)Nc1ccccc1Cl)C2`: 871 s; `Cc1[nH]c2ccccc2c1C(=O)C(=O)Nc1ccccc1F`: 846 s. Next, `CC(=O)N1CCc2cc(N3CC(C(=O)NCc4ccccc4C(F)(F)F)CC3=O)ccc21` (stereo not given): 748 s; `O=C(NCC(=O)N1CCN(c2ccccn2)CC1)c1cc2ccccc2[nH]1`: 600 s.
